US20230332145A1, “BIFUNCTIONAL MOLECULES AND METHODS OF USING THEREOF” (Flagship Pioneering, Inc., priority 2020, published 2023)
In the oligonucleotide strings, read from the 5' end, every base follows the letter of its sugar. An asterisk marks phosphorothioate; unmarked linkages are phosphodiester. Other units and linkages are bracketed, terminal groups are in braces. A string of capitals states the bases alone. e = 2'-O-(2-methoxyethyl) (MOE); [5mC] = 5-methylcytosine

Experiments:
[1] = system: MYC expression; experiment: MYC expression by qPCR after RNAiMax transfection of HEK293T cells; format: cell-based, human; conditions: for MYC expression change, linker comparison: 400 to 3.125 nM
Protocol: HEK293T cells were seeded at 30k cells/well in a 96 well tissue culture vessel day before transfection. […] Transfected cells were allowed to recover and were harvested after 24 hours. MYC expression was measured by RNA level using qPCR analysis after transfection with each of the bi-functional molecule or control molecules. Cell samples for qPCR analysis were prepared by Cells to Ct 1 Step TaqMan Kit (ThermoFisher A25602) following manufractuer’s recommendations. qPCR assays were performed using Cells to Ct qPCR master mix, gene specific TaqMan probe (ThermoFisher), and Cells to Ct cell lysate. Relative levels of MYC were normalized to β-actin as a stably expressed control. MYC TaqMan probe: ThermoFisher Assay ID Hs00153408_ml; ACTB TaqMan probe: ThermoFisher Assay ID Hs01060665_g1. During qPCR amplification, FAM fluorescence intensity for each target gene was recorded by QuantStudio7 qPCR instrument (ThermoFisher Scientific) as a measurement of the amount of double-stranded DNA produced during each PCR cycle. Ct values for each gene in each sample were computed by the instrument software based on the amplification curves, and used to determine relative expression values for target and β-actin in each sample.

[2] = system: SYNGAP1 expression; experiment: SYNGAP1 expression by qPCR after transfection of HEK293T cells; format: cell-based, human; conditions: 200 nM, 48 hours
Protocol: SYNGAP1 ASO1-JQ1 to SYNGAP1 ASO4-JQ1 were transfected to HEK293T cells at 200, and 67 nM with RNAiMax. SYNGAP1 ASO-JQ1:RNAiMax ratios in transfection are: 200 nM:0.6 ul, 67 nM:0.2 ul. Cells were harvested 48 hours after transfection and SYNGAP1 expression changes was monitored by qPCR. TaqMan probe used in the assay for quantitation: SYNGAP1: Assay ID Hs00405348_m1 (ThermoFisher), ACTB Assay ID Hs01060665_g1(ThermoFisher).

[3] = system: BET family of bromodomain proteins; conditions: cited from earlier work
[4] = system: MYC protein; experiment: MYC protein, FRET based ELISA (Human c-Myc Cell-based kit) in HEK293T cells; conditions: 200 nM, 24 hours
Protocol: PVT1 ASO1-JQ1 and control molecules were transfected to HEK293T cells at 400, 200, 100, and 50 nM with RNAiMax. PVT1 ASO1-JQ1:RNAiMax ratios in transfection are: 400 nM: 1.2 ul, 200 nM:0.6 ul, 100 nM:0.3 ul, 50 nM:0.15 ul. Cells were harvested 24 hours after transfection and MYC expression changes was monitored by qPCR and by enzyme-linked immunosorbent assay (ELISA). […] For a fluorescence resonance energy transfer (FRET) based ELISA assays, cell samples were prepared by Human c-Myc Cell-based kit (Cisbio # 63ADK053PEH) following manufractuer’s recommendation. MYC protein is detected in a sandwich assay using two specific antibodies, labeled with Europium Cryptate (donor) and with d2 (acceptor). FRET signal was read with Varioskan LUX Multimode Microplate Reader (ThermoFisher) with a 6 hr kinetic read.

[5] = system: SCN1A expression; experiment: SCN1A expression by qPCR after transfection of SK-N-AS cells; format: cell-based, human; conditions: 100 to 3.125 nM, 48 hours
Protocol: SCN1A-ASO1 shown in Table 5A was designed against the exonic region of SCN1A mRNA. SCN1A ASO1-Linker1-JQ1 was transfected to SK-N-AS cells at 100, 50, 25, 12.5, 6.25, and 3.125 nM with RNAiMax. SCN1A ASO1-JQ1:RNAiMax ratios in transfection were: 100 nM:0.3 ul, 50 nM and below:0.15 ul. Cells were harvested 48 hours after transfection and SCN1A expression changes were monitored by qPCR. TaqMan probe used in the assay for quantitation: SCN1A Hs00374696_ml (ThermoFisher), GAPDH Hs02786624_g1 (ThermoFisher).
SCN1A ASO1-Linker1-iBET762 was transfected to SK-N-AS cells at 100, 50, 25, 12.5, 6.25, and 3.125 nM with RNAiMax. SCN1A ASO1-iBET762:RNAiMax ratios in transfection are: 100 nM:0.3 ul, 50 nM and below:0.15 ul. Cells were harvested 48 hours after transfection and SCN1A expression changes were monitored by qPCR. TaqMan probe used in the assay for quantitation: SCN1A Hs00374696_m1 (ThermoFisher), GAPDH Hs02786624_g1 (ThermoFisher). […] SCN1A encodes for the alpha-1 subunit of the voltage-gated sodium channel (Na(V)1.1), and patients with SCN1A loss of function mutations suffers from Dravet syndrome, a neurological disorder.

[6] = HEK293T, 400, 133, 44, 15 nM, 24 hours

With “PVT1 ASO25-JQ1: PVT1 ASO25 (SEQ ID NO: 31) conjugated to JQ1 with linker 2 (TTATAGACTAGATTGGCCAG; conjugated to JQ1 via linker 2, modification pattern not given here)” the MYC expression change [1, 6] was “increased MYC expression level similar to PVT1 ASO1-JQ1”.
In the case of “SYNGAP1 ASO2-JQ1: SYNGAP1 ASO2 (SEQ ID NO: 48) conjugated to JQ1 using Linker 2 (ATCACCTCCTATAGCTCCT; 5' amino modified, conjugated to JQ1 via linker 2, further chemistry not given here)”, the “increase in SYNGAP1 expression” value [2] is reported as “about 2 fold”.
With “PVT1-Scr4: JQ1 conjugate of partially scrambled PVT1 ASO1 sequence scr4 (SEQ ID NO: 66) (eG*eT*eA*eA*eG*eT*eG*eG*eA*eA*eT*eT*e[5mC]*e[5mC]*eA*eT*eT*eG*eG; JQ1 conjugate, further chemistry not fully specified)” the MYC expression change ([1]; HEK293T, 100 nM, 24 hours) was “less impact on the activities”.
For “PVT1 ASO24-JQ1: PVT1 ASO24 (SEQ ID NO: 30) conjugated to JQ1 with linker 2 (CATTGAAGGATCATGGTCAT; conjugated to JQ1 via linker 2, modification pattern not given here)”, the MYC expression change [1, 6] was “increased MYC expression level similar to PVT1 ASO1-JQ1”.
For (-)JQ1, the “weaker biochemical activity as compared to JQ1” value [3] is listed as > 100 x.
In the case of “PVT1-Scr8: JQ1 conjugate of partially scrambled PVT1 ASO1 sequence scr8 (SEQ ID NO: 70) (eG*eT*eA*eA*eG*eT*eG*eG*eA*eA*eT*eT*e[5mC]*e[5mC]*eA*eT*eG*eG*eT; JQ1 conjugate, further chemistry not fully specified)”, the MYC expression change ([1]; HEK293T, 100 nM, 24 hours) is reported as “less impact on the activities”.
For “PVT1 ASO1-JQ1: PVT1 ASO1 (SEQ ID NO: 7) conjugated to JQ1 with linker 2 (eG*eT*eA*eA*eG*eT*eG*eG*eA*eA*eT*eT*e[5mC]*e[5mC]*eA*eG*eT*eT*eG; JQ1 conjugated via linker 2, further chemistry not fully specified)”, the “MYC response at top dose of titration” value ([1]; HEK293T, 200 nM, 24 hours) was “slight decrease of MYC response”, the “MYC expression change upon dose titration” value ([1]; HEK293T, 200, 100, 50, 25, 12.5, 6.25, 3.125 nM, 24 hours) was “dose dependent response” and the “MYC expression change (RNA transcripts)” value ([1]; HEK293T, 400, 200, 100, 50 nM, 24 hours) was “increase of MYC RNA transcripts”. For the same substance, the “MYC expression change, linker comparison” value ([1]; HEK293T, 24 hours) was “both active and increased MYC expression to similar levels”, the “increase in MYC expression” value ([1]; HEK293T, transfected at 400, 200, 100, 50 nM, harvested after 24 hours) was “about 4 fold” and the “MYC protein level increase” value [4] was “about 2 fold”.
With “PVT1-ASO1-Linker1-JQ1: PVT1 ASO1 (SEQ ID NO: 7) conjugated to JQ1 with linker 1 (eG*eT*eA*eA*eG*eT*eG*eG*eA*eA*eT*eT*e[5mC]*e[5mC]*eA*eG*eT*eT*eG; JQ1 conjugated via linker 1, further chemistry not fully specified)” the “MYC expression change, linker comparison” value ([1]; HEK293T, 24 hours) was “both active and increased MYC expression to similar levels”.
With “PVT1-Scr1: JQ1 conjugate of partially scrambled PVT1 ASO1 sequence scr1 (SEQ ID NO: 63) (eT*eG*eA*eA*eG*eT*eG*eG*eA*eA*eT*eT*e[5mC]*e[5mC]*eA*eG*eT*eT*eG; JQ1 conjugate, further chemistry not fully specified)” the MYC expression change ([1]; HEK293T, 100 nM, 24 hours) was “less impact on the activities”.
For “SCN1A ASO1-JQ1: SCN1A ASO1 (SEQ ID NO: 46), 5′ Azide-N modified LNA mixmer, conjugated to JQ1 with linker 1 (AGTAAGACTGGGGTTGTT; 5' azide, LNA mixmer, JQ1 via linker 1, chemistry not fully specified)”, the “increase in SCN1A expression” value [5] was “about 2 fold”.
